Results on 20 molecules are retold here after patent US11155557B2, “Pyrazolopyrimidine compounds and methods of use thereof” (Genentech, Inc., priority 2016, dated 2021).

SMILES strings stand for the structures.

In test [1] the target is isolated recombinant JAK1 kinase domain (Homo sapiens (Human), UniProt P23458). Kind of test: JAK1 enzyme assay (Caliper LabChip, Ki). The test is classed as biochemical. On the procedure:
The activity of the isolated recombinant JAK1 and JAK2 kinase domain was measured by monitoring phosphorylation of a peptide derived from JAK3 ([…] fluorescently labeled on the N-terminus with 5-carboxyfluorescein) using the Caliper LabChip R technology (Caliper Life Sciences, Hopkinton, Mass.).

In test [2] the test system is JAK1-dependent STAT6 phosphorylation in BEAS-2B human bronchial epithelial cells. Kind of test: JAK1 pathway assay: IL-13 stimulated STAT6 phosphorylation in BEAS-2B cells. The following applies: Homo sapiens, BEAS-2B, BEAS-2B cells, IL-13 stimulation; read-out: IL-13 p-STAT6 BEAS-2B IC50. The test is classed as cell-based. The method in brief:
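BEAS-2B bronchial epithelial cells plated one day before, run in complete growth medium. Phospho-STAT6 in lysates measured by MesoScale Discovery; EC50 reported.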

For test [3], the target named is isolated recombinant JAK2 kinase domain (Homo sapiens (Human), UniProt O60674). Kind of test: JAK2 enzyme assay (Caliper LabChip, Ki). The following applies: read-out: JAK2 Ki.
isolated recombinant JAK2 kinase domain, sequence (O60674 849-1124): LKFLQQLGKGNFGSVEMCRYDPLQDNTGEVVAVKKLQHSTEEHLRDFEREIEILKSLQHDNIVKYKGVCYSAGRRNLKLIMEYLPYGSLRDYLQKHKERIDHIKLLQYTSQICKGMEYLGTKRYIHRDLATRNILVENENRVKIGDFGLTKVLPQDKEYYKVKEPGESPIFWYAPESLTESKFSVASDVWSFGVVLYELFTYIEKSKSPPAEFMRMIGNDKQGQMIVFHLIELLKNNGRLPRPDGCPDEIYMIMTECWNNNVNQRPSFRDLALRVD

isolated recombinant JAK1 kinase domain, sequence (P23458 875-1153): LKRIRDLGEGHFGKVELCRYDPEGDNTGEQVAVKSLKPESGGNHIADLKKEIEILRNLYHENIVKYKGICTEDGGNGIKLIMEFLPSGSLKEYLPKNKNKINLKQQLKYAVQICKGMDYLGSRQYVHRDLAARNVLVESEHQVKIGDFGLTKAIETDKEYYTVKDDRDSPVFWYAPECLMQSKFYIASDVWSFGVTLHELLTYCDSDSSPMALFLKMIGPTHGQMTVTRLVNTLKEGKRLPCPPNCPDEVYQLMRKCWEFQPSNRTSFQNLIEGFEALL

On to `O=C1COc2cc(-c3n[nH]cc3NC(=O)c3cnn4cccnc34)c(OC(F)F)cc2N1` [Example 40, N-[3-[6-(difluoromethoxy)-3-oxo-4H-1,4-benzoxazin-7-yl]-1H-pyrazol-4-yl]pyrazolo[1,5-a]pyrimidine-3-carboxamide], for which the Ki in test [1] was 0.09 nM; in test [3], 0.06 nM. The IC50 in test [2] worked out at 67 nM.
The matching figures for `C[C@H]1COc2cc(-c3n[nH]cc3NC(=O)c3cnn4cccnc34)c(OC(F)F)cc2N1` [Example 42, N-[3-[(3S)-6-(difluoromethoxy)-3-methyl-3,4-dihydro-2H-1,4-benzoxazin-7-yl]-1H-pyrazol-4-yl]pyrazolo[1,5-a]pyrimidine-3-carboxamide]: 0.44 nM, 0.25 nM and 34 nM.
The matching figures for `C[C@@H]1COc2cc(-c3n[nH]cc3NC(=O)c3cnn4cccnc34)c(OC(F)F)cc2N1` [Example 43, N-[3-[(3R)-6-(difluoromethoxy)-3-methyl-3,4-dihydro-2H-1,4-benzoxazin-7-yl]-1H-pyrazol-4-yl]pyrazolo[1,5-a]pyrimidine-3-carboxamide]: 0.25 nM, 0.17 nM and 12 nM.
On the same counts, the results for `O=C(Nc1cn(CC(=O)N2CCC(CN3CCOCC3)CC2)nc1-c1cc2c(cc1OC(F)F)NCCO2)c1cnn2cccnc12` [Example 44, N-[3-[6-(difluoromethoxy)-3,4-dihydro-2H-1,4-benzoxazin-7-yl]-1-[2-[4-(morpholinomethyl)-1-piperidyl]-2-oxo-ethyl]pyrazol-4-yl]pyrazolo[1,5-a]pyrimidine-3-carboxamide] are 0.34 nM, 0.51 nM and 45 nM.
For the molecule `C[C@H]1CNc2cc(OC(F)F)c(-c3nn(CC(=O)N4CCC(CN5CCOCC5)CC4)cc3NC(=O)c3cnn4cccnc34)cc2S1` [Example 45, N-[1-[2-[4-(morpholinomethyl)-1-piperidyl]-2-oxo-ethyl]-3-[(2S)-6-(difluoromethoxy)-2-methyl-3,4-dihydro-2H-1,4-benzothiazin-7-yl]pyrazol-4-yl]pyrazolo[1,5-a]pyrimidine-3-carboxamide], the Ki in test [1] came out at 0.22 nM; in test [3] it was 0.24 nM. Moreover, the 50% inhibitory concentration (IC50) in test [2] is 29 nM.
As to `C[C@@H]1CNc2cc(OC(F)F)c(-c3nn(CC(=O)N4CCC(CN5CCOCC5)CC4)cc3NC(=O)c3cnn4cccnc34)cc2S1` [Example 46, N-[1-[2-[4-(morpholinomethyl)-1-piperidyl]-2-oxo-ethyl]-3-[(2R)-6-(difluoromethoxy)-2-methyl-3,4-dihydro-2H-1,4-benzothiazin-7-yl]pyrazol-4-yl]pyrazolo[1,5-a]pyrimidine-3-carboxamide], the Ki in test [1] is 0.25 nM; in test [3], 0.31 nM. For the same molecule, the IC50 in test [2] was 31 nM.
On the same counts, the results for `O=C(Nc1cn(CC(=O)N2CCC(N3CCOCC3)CC2)nc1-c1cc2c(cc1OC(F)F)NCCO2)c1cnn2cccnc12` [Example 47, N-[3-[6-(difluoromethoxy)-3,4-dihydro-2H-1,4-benzoxazin-7-yl]-1-[2-(4-morpholino-1-piperidyl)-2-oxo-ethyl]pyrazol-4-yl]pyrazolo[1,5-a]pyrimidine-3-carboxamide] are 0.31 nM, 0.45 nM and 106 nM.
On the same counts, the results for `O=C(Nc1cn(CC(=O)N2CCC(O)CC2)nc1-c1cc2c(cc1OC(F)F)NCCO2)c1cnn2cccnc12` [Example 48, N-[3-[6-(difluoromethoxy)-3,4-dihydro-2H-1,4-benzoxazin-7-yl]-1-[2-(4-hydroxy-1-piperidyl)-2-oxo-ethyl]pyrazol-4-yl]pyrazolo[1,5-a]pyrimidine-3-carboxamide] are 0.3 nM, 0.51 nM and > 1000 nM.
The matching figures for `O=C(Nc1cn(CC(=O)N2CC=CCC2)nc1-c1cc2c(cc1OC(F)F)NCCO2)c1cnn2cccnc12` [Example 49, N-[3-[6-(difluoromethoxy)-3,4-dihydro-2H-1,4-benzoxazin-7-yl]-1-[2-(3,6-dihydro-2H-pyridin-1-yl)-2-oxo-ethyl]pyrazol-4-yl]pyrazolo[1,5-a]pyrimidine-3-carboxamide]: 0.23 nM, 0.29 nM and 19 nM.
On to `O=C(Nc1cn(CC(=O)N2CC=CCC2)nc1-c1cc2c(cc1OC(F)F)NCCS2)c1cnn2cccnc12` [Example 50, N-[3-[6-(difluoromethoxy)-3,4-dihydro-2H-1,4-benzothiazin-7-yl]-1-[2-(3,6-dihydro-2H-pyridin-1-yl)-2-oxo-ethyl]pyrazol-4-yl]pyrazolo[1,5-a]pyrimidine-3-carboxamide], for which the values for the Ki in test [1] and in test [3] were 0.11 nM and 0.1 nM, respectively. Moreover, the IC50 in test [2] was found to be 10 nM.
On the same counts, the results for `O=C(Nc1cn(CC(=O)N2CCCCC2)nc1-c1cc2c(cc1OC(F)F)NCCS2)c1cnn2cccnc12` [Example 51, N-[3-[6-(difluoromethoxy)-3,4-dihydro-2H-1,4-benzothiazin-7-yl]-1-[2-oxo-2-(1-piperidyl)ethyl]pyrazol-4-yl]pyrazolo[1,5-a]pyrimidine-3-carboxamide] are 0.13 nM, 0.1 nM and 11 nM.
Regarding `O=C(Nc1cn(CC(=O)N2CCC(O)CC2)nc1-c1cc2c(cc1OC(F)F)NCCS2)c1cnn2cccnc12` [Example 52, N-[3-[6-(difluoromethoxy)-3,4-dihydro-2H-1,4-benzothiazin-7-yl]-1-[2-(4-hydroxy-1-piperidyl)-2-oxo-ethyl]pyrazol-4-yl]pyrazolo[1,5-a]pyrimidine-3-carboxamide], the Ki in test [1] stood at 0.16 nM; in test [3], 0.14 nM. Besides, in test [2], the IC50 is 285 nM.
On the same counts, the results for `CCN1CCN(C(=O)Cn2cc(NC(=O)c3cnn4cccnc34)c(-c3cc4cn[nH]c4cc3OC(F)F)n2)CC1` [Example 53, N-[3-[6-(difluoromethoxy)-1H-indazol-5-yl]-1-[2-(4-ethylpiperazin-1-yl)-2-oxo-ethyl]pyrazol-4-yl]pyrazolo[1,5-a]pyrimidine-3-carboxamide] are 0.25 nM, 0.39 nM and 88 nM.
The matching figures for `COc1cc2ccsc2cc1-c1nn(CC(=O)N2CCC(N3CCOCC3)CC2)cc1NC(=O)c1cnn2cccnc12` [Example 54, N-[3-(5-methoxybenzothiophen-6-yl)-1-[2-(4-morpholino-1-piperidyl)-2-oxo-ethyl]pyrazol-4-yl]pyrazolo[1,5-a]pyrimidine-3-carboxamide]: 0.92 nM, 2.1 nM and 46 nM.
The matching figures for `N#Cc1cc2cc(OC(F)F)c(-c3nn(CC(=O)N4CCC(N5CCOCC5)CC4)cc3NC(=O)c3cnn4cccnc34)cc2s1` [Example 55, N-[3-[2-cyano-5-(difluoromethoxy)benzothiophen-6-yl]-1-[2-(4-morpholino-1-piperidyl)-2-oxo-ethyl]pyrazol-4-yl]pyrazolo[1,5-a]pyrimidine-3-carboxamide]: 0.41 nM, 0.41 nM and 20 nM.
For `NC(=O)c1cc2cc(OC(F)F)c(-c3nn(CC(=O)N4CCC(N5CCOCC5)CC4)cc3NC(=O)c3cnn4cccnc34)cc2s1` [Example 56, N-[3-[2-carbamoyl-5-(difluoromethoxy)benzothiophen-6-yl]-1-[2-(4-morpholino-1-piperidyl)-2-oxo-ethyl]pyrazol-4-yl]pyrazolo[1,5-a]pyrimidine-3-carboxamide], the Ki is 0.39 nM in test [1] and 0.37 nM in test [3]. Moreover, in test [2], the IC50 was > 333 nM.
The matching figures for `O=C(Nc1cn(CC(=O)N2CCC(N3CCOCC3)CC2)nc1-c1cc2ccccc2cc1OC(F)F)c1cnn2cccnc12` [Example 57, N-[3-[3-(difluoromethoxy)-2-naphthyl]-1-[2-(4-morpholino-1-piperidyl)-2-oxo-ethyl]pyrazol-4-yl]pyrazolo[1,5-a]pyrimidine-3-carboxamide]: 0.56 nM, 0.87 nM and 17 nM.
On the same counts, the results for `O=C(Nc1cn(CC(=O)N2CCC(N3CCOCC3)CC2)nc1-c1cc2c(cc1OC(F)F)NCCS2)c1cnn2cccnc12` [Example 58, N-[3-[6-(difluoromethoxy)-3,4-dihydro-2H-1,4-benzothiazin-7-yl]-1-[2-(4-morpholino-1-piperidyl)-2-oxo-ethyl]pyrazol-4-yl]pyrazolo[1,5-a]pyrimidine-3-carboxamide] are 0.19 nM, 0.22 nM and 54 nM.
The matching figures for `O=C(Nc1cn(CC(=O)N2CCC(CN3CCOCC3)CC2)nc1-c1cc2c(cc1OC(F)F)NCCS2)c1cnn2cccnc12` [Example 59, N-[3-[6-(difluoromethoxy)-3,4-dihydro-2H-1,4-benzothiazin-7-yl]-1-[2-[4-(morpholinomethyl)-1-piperidyl]-2-oxo-ethyl]pyrazol-4-yl]pyrazolo[1,5-a]pyrimidine-3-carboxamide]: 0.22 nM, 0.23 nM and 25 nM.
For the molecule `N#Cc1cc2cc(OC(F)F)c(-c3nn(CC(=O)N4CCC(CN5CCOCC5)CC4)cc3NC(=O)c3cnn4cccnc34)cc2s1` [Example 60, N-[3-[2-cyano-5-(difluoromethoxy)benzothiophen-6-yl]-1-[2-[4-(morpholinomethyl)-1-piperidyl]-2-oxo-ethyl]pyrazol-4-yl]pyrazolo[1,5-a]pyrimidine-3-carboxamide], the inhibition constant Ki in test [1] stood at 0.36 nM; in test [3], 0.35 nM. The half-inhibitory concentration (IC50) in test [2] worked out at 12 nM.
